For assay [1], the system named is spontaneously hypertensive rats (SHR), mean blood pressure. Kind of assay: Antihypertensive activities on spontaneously hypertensive rat (intravenously). The class given is in vivo, rat (male spontaneously hypertensive rats. To be noted: iv, anesthetized male SHR, i.v., cumulative dosing, read-out: ED20 (the dose which lowered the blood pressure by 20%). As for the experimental part:
Animals were anesthetized with urethane: α-chloralose.
A cannula was inserted into the carotid artery for measuring the mean blood pressure via a pressure transducer. A test compound was cumulatively administered through the cannula inserted into the femoral vein with an interval of 30 minutes. Variation of blood pressure was determined as the percentage change in the blood pressure before administration of the test compound, and the ED20 (the dose which lowered the blood pressure by 20%) was calculated from a dose-response curve.

Assay [2] concerns rat aorta. The experiment in a line: Vasodilating effect in a rat aorta (relaxation of KCl-induced contraction). To be noted: isolated rat thoracic aorta, 40 mM KCl; read-out: IC50 (concentration for inhibiting 50% of the tension induced by KCl). Also on record: species or system rat (male Wistar rat). As for the experimental part: Physiological effect of the compound of the present invention was tested by the method with use of an isolated rat aorta.
Thoracic aorta was isolated from a male Wistar rat (body weight, 250-350 g) exsanguinated to death for obtaining ring preparations having a width of 3 mm. The preparations were suspended into an organ bath filled with the Krebs-Ringer solution through which a mixed gas of 95% O2 and 5% CO2 had been aerated at 37° C. A resting tension of 1 g was applied to the preparation. After the tension in the preparation was stabilized, the solution in the organ bath was exchanged with an equimolar solution containing 40 mM KC1 to increase the tension of the preparation. When the tension induced by KCl become stable, the test compound was cumulatively added to the organ bath to relax the preparation. Relaxation response was expressed as percentage inhibition of KCl-induced contraction, and the IC50 value (concentration for inhibiting 50% of the tension induced by KCl) was calculated from the average concentration-response curve by the Probit method.

The test system of assay [3] is spontaneously hypertensive rats (SHR), systolic blood pressure. Kind of assay: Time course of antihypertensive activity in conscious SHR (oral), Compound No. 16. The settings on record: 3.0 mg/kg oral. Type of assay: in vivo, rat (male spontaneously hypertensive rats. The protocol:
Time course of antihypertensive activity of 5-amino-N-cyano-N'-(2-phenethyl)pyridinecarboximidamide (Compound No. 16) was examined.
(§1) Systolic blood pressure (SBP) was measured with the tail cuff method.
The compound No. 16 was dissolved in an equivalent mixture of polyethylene glycol 200 and physiological saline, and administered orally with the aid of an oral probe. SBP was measured before administration and 1, 2, 4, 6, 8, 12 and 24 hours after administration of the compound. The results were expressed as the percentage change in SBP obtained before administration.

For assay [4], the system named is coronary blood flow (circumflex branch of the left coronary artery), beagles. The experiment in a line: Coronary dilating effect on beagles (coronary blood flow, anesthetized dog). To be noted: i.v., 10 Mg/Kg. The class given is in vivo. The protocol: Coronary dilating effects of 5-amino-N-cyano-N'-(2-nitroxyethyl)-3-pyridinecarboximidamide (Compound No. 18) of the present invention was assessed by comparison with those of N-cyano-N'-(2-nitroxyethyl)-3-pyridinecarboximidamide methanesulfonic acid (compound described in Japanese Patent Laid-Open Publication No. 163061/1991) which is thought to be a well-known compound most similar to the compound of the present invention.
A dog (body weight, 8.3 kg) was anesthetized with 30 mg/kg of pentobarbital sodium intravenously. Respiration was maintained with room air through a cuffed endotracheal tube. The drug was administered through the femoral vein, and the coronary blood flow was measured by a probe attached to the circumflex branch of the left coronary artery.

Assay [5] deals with spontaneously hypertensive rats (SHR), systolic blood pressure. Kind of assay: Antihypertensive effects on conscious SHR (oral), Compound Nos. 18 and 19. Type of assay: in vivo, rat (male spontaneously hypertensive rats. The settings on record: 3.0 mg/kg oral. As for the experimental part:
Antihypertensive effects of- 5-amino-N-cyano-N'-(2-nitroxyethyl)-3-pyridinecarboximidamide (N-cyano-N'-(2-nitroxyethyl)-5-(3-aminopyridine)carboximidamide; Compound No. 18) and N-cyano-5-ethylamino-N'-(2-nitroxyethyl)-3-pyridinecarboximidamide (N-cyano-N'-(2-nitroxyethyl)-5-[3-(N-ethylaminopyridine)]carboximidamide; Compound No. 19) were assessed by comparison with those of the methanesulfonate salt of N-cyano-N'-(2-nitroxyethyl)-3-pyridinecarboximidamide (compound described in Japanese Patent Laid-Open Publication No. 163061/1991) as a reference compound which is thought to be a well-known compound most similar to the compound of the present invention.
as §1
Each of the compound Nos. 18 and 19 was dissolved in an equivalent mixture of polyethylene glycol 200 and physiological saline, and the reference compound was dissolved in physiological saline. The compounds were administered orally with the aid of an oral probe. SBP was measured before administration and 1, 2, 4, 6, 8, 12 and 24 hours after administration of the compound. The results were expressed as the percentage change in SBP observed before administration.

Assay [6] relates to beagles, blood pressure. Kind of assay: Antihypertensive activity on anesthetized beagles (intravenously). The class given is in vivo, dog (beagles). The settings on record: for Antihypertensive activity (%): i.v. As for the experimental part: Antihypertensive activities of 5-amino-N-cyano-N'-[2-(2-chlorophenyl)ethyl]-3-pyridinecarboximidamide (N-cyano-N'-[2-(2-chlorophenyl)ethyl]-5-(3aminopyridine)carboximidamide; Compound No. 6) according to the present invention was assessed by comparison with those of N-cyano-N'-[2-(2-chlorophenyl)ethyl]-3-pyridinecarboximidamide which is thought to be a wellknown compound most similar to the compound of the present invention (see Japanese Patent Laid-Open Publication No. 163061/1991).
Experiments were carried out with beagles (body weight, 9.2-10.4 kg) under anesthetization by intravenous administering 30 mg/kg of pentobarbital sodium. A cannula was inserted into the right femoral artery for measuring blood pressure. […]

Structures are written as SMILES.

For the compound `CCNc1cncc(C(=NCCc2ccccc2Cl)NC#N)c1` [compound 10, N-cyano-N'-[2-(2-chlorophenyl)ethyl]-5-ethylamino-3-pyridinecarboximidamide], the ED20 in assay [1] amounted to 0.0079 mg/kg.

As for `CCN(CC)c1ccc(C(=NCCO[N+](=O)[O-])NC#N)cn1` [compound 21, N-cyano-6-diethylamino-N'-(2-nitroxyethyl)-3-pyridinecarboximidamide], in assay [2], the IC50 amounted to 4.6 µM.

`N#CN=C(NCCc1ccccc1)c1cncc(N)c1` [Compound No. 16, 5-amino-N-cyano-N'-(2-phenethyl)-3-pyridine-carboximidamide]: in assay [1], the ED20 was found to be 0.028 mg/kg. The “decrease in blood pressure” value in assay [3] is recorded as “decrease in blood pressure was observed”. In addition, in assay [3], the “duration of the antihypertensive effect” value is no less than 12 h. Moreover, the “percentage change in SBP obtained before administration” value in assay [3] (1 hour after administration) is reported as -45.3%; in assay [3] (2 hour after administration), -23.9%; in assay [3] (4 hour after administration), -42.3%; in assay [3] (6 hour after administration), -27.9%; in assay [3] (8 hour after administration), -22.8%; in assay [3] (12 hour after administration), -15.1%. Moreover, the “percentage change in SBP obtained before administration” value in assay [3] (24 hour after administration) is -8.2%.

On to `N#CNC(=NCCO[N+](=O)[O-])c1cccnc1` [Reference Compound, N-cyano-N'-(2-nitroxyethyl)-3-pyridinecarboximidamide, reference compound], for which, in assay [4], the “increase of coronary blood flow” value was “increase in coronary blood flow was observed”. For the same compound, the “time for which the increase of coronary blood flow was retained” value in assay [4] is no more than 10 min. Moreover, the “percent change of coronary blood flow as compared with the blood flow before administration” value in assay [4] (1 min after dosage) amounted to 219.0%; in assay [4] (3 min after dosage) it was 42.9%; in assay [4] (5 min after dosage) it was 14.3%; in assay [4] (10 min after dosage), 0.0%. Besides, the “decrease in blood pressure / antihypertensive effect” value in assay [5] was “antihypertensive effect was also observed”. Also, the “duration of the antihypertensive effect” value in assay [5] is recorded as “about 6 hours”. The “percent change in SBP observed before administration of the compound” value (“percent change … of the compound” for short) in assay [5] (1 hour after administration) is reported as -55.9%; in assay [5] (2 hour after administration), -41.5%; in assay [5] (4 hour after administration), -10.6%; in assay [5] (6 hour after administration) it was -6.8%.

Consider `N#CNC(=NCCc1ccccc1Cl)c1cccnc1` [N-cyano-N'-[2-(2-chlorophenyl)ethyl]-3-pyridinecarboximidamide, reference compound], for which the “decrease in blood pressure” value in assay [6] (10 and 30 μg/kg) is “decrease in blood pressure was observed”. The “recovery of the decrease in blood pressure after administration” value in assay [6] (both doses, 10 and 30 μg/kg) is no more than 10 min. The “Antihypertensive activity (%)” value in assay [6] (dose 3 μg/kg, 0 min after dosage) is reported as 0.0%; in assay [6] (dose 3 μg/kg, 1 min after dosage) it was 0.0%; in assay [6] (dose 3 μg/kg, 2 min after dosage), 1.9%; in assay [6] (dose 3 μg/kg, 3 min after dosage), 1.9%; in assay [6] (dose 10 μg/kg, 0 min after dosage), 0.0%; in assay [6] (dose 10 μg/kg, 1 min after dosage), -23.4%. Further, the “Antihypertensive activity (%)” value is given as -17.7% in assay [6] (dose 10 μg/kg, 2 min after dosage); -13.1% in assay [6] (dose 10 μg/kg, 3 min after dosage); -4.7% in assay [6] (dose 10 μg/kg, 5 min after dosage); 0.0% in assay [6] (dose 30 μg/kg, 0 min after dosage); -41.7% in assay [6] (dose 30 μg/kg, 1 min after dosage); -39.8% in assay [6] (dose 30 μg/kg, 2 min after dosage). Further, the “Antihypertensive activity (%)” value is -33.3% in assay [6] (dose 30 μg/kg, 3 min after dosage); -16.7% in assay [6] (dose 30 μg/kg, 5 min after dosage); -2.8% in assay [6] (dose 30 μg/kg, 7.5 min after dosage); -0.9% in assay [6] (dose 30 μg/kg, 10 min after dosage).

As for `N#CNC(=NCCc1ccccc1Cl)c1cncc(CO)c1` [compound 3, N-cyano-N'-[2-(2-chlorophenyl)ethyl]-5-hydroxymethyl-3-pyridinecarboximidamide], the ED20 in assay [1] came to 0.0087 mg/kg.

As to `CC(=O)Nc1cncc(C(=NC#N)NCCc2ccccc2Cl)c1` [compound 7, 5-acetamide-N-cyano-N'-[2-(2-chlorophenyl)-ethyl]-3-pyridinecarboximidamide], the ED20 in assay [1] came to 0.0123 mg/kg.

In the case of `N#CNC(=NCCc1ccccc1Cl)c1ccc(N)nc1` [compound 5, 6-amino-N-cyano-N'-[2-(2-chlorophenyl)ethyl]-3-pyridinecarboximidamide], in assay [1], the ED20 was 0.0333 mg/kg.

In the case of `Cc1cncc(C(=NCCc2ccccc2Cl)NC#N)c1` [Compound No. 1, N-cyano-N'-[2-(2-chlorophenyl)ethyl]-5-methyl-3-pyridinecarboximidamide], the ED20 in assay [1] was 0.0171 mg/kg.

Turning to `CCNc1cncc(C(=NCCO[N+](=O)[O-])NC#N)c1` [Compound No. 19, N-cyano-5-ethylamino-N'-(2-nitroxyethyl)-3-pyridinecarboximidamide], in assay [2], the IC50 is 10 µM. Moreover, the “decrease in blood pressure / antihypertensive effect” value in assay [5] was “decrease in blood pressure was observed”. For the same compound, the “duration of the antihypertensive effect” value in assay [5] was no less than 12 h. In addition, the “percent change … of the compound” value is -60.2% in assay [5] (1 hour after administration); -47.2% in assay [5] (2 hour after administration); -24.3% in assay [5] (4 hour after administration); -23.9% in assay [5] (6 hour after administration); -25.9% in assay [5] (8 hour after administration); -27.7% in assay [5] (12 hour after administration). Further, the “percent change … of the compound” value in assay [5] (24 hour after administration) is -9.8%.

Take `N#CNC(=NCCO[N+](=O)[O-])c1ccc(N)nc1` [compound 20, 6-amino-N-cyano-N'-(2-nitroxyethyl)-3-pyridinecarboximidamide]: in assay [2], the IC50 turned out to be 2.7 µM.

As to `CCc1cncc(C(=NCCc2ccccc2Cl)NC#N)c1` [compound 2, N-cyano-N'-[2-(2-chlorophenyl)ethyl]-5-ethyl-3-pyridinecarboximidamide], in assay [1], the ED20 came to 0.007 mg/kg.

Values taken from patent US5508293A, “Pyridinecarboxyimidamide compounds and the use thereof” (Kirin Beer Kabushiki Kaisha, priority 1992, dated 1996).
